# From US20250221966A1, “RXFP1 AGONISTS” (BRISTOL-MYERS SQUIBB COMPANY, priority 2021, published 2025)
# Counter-ions that a name gives are not always drawn.
# Target: T1, human RXFP1 (Homo sapiens, UniProt Q9HBX9)
# T1 construct: expressed in transfected cells
# T1 sequence (Q9HBX9 1-757): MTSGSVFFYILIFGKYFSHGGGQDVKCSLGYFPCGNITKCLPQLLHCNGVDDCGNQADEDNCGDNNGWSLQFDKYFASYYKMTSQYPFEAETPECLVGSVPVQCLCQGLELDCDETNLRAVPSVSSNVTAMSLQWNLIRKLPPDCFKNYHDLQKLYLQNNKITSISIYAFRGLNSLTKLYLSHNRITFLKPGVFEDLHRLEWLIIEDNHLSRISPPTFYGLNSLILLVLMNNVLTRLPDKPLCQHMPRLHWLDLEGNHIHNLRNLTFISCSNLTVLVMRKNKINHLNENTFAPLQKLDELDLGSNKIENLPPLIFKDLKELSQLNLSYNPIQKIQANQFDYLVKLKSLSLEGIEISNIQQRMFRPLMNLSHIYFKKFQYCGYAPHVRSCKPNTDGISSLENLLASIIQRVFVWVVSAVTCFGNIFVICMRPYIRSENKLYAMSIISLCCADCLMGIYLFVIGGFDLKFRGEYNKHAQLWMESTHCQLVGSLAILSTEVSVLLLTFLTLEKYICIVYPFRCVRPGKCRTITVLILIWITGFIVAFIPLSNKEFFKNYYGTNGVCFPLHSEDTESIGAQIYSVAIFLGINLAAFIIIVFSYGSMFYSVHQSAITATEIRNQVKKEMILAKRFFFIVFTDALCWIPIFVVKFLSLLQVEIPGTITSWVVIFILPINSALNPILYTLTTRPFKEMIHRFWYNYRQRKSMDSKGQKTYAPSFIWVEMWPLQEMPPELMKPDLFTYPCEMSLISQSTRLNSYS
# Experiment: RXFP1 cAMP assay (hRXFP1 HEK293 cAMP assay, HTRF)
# Assay type: cell-based
# Conditions: HEK293 cells stably expressing human RXFP1, 30 min at room temperature, read-out: cAMP hRXFP1 HEK293 Assay EC50
# Procedure, shortened: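 HEK293 cells stably expressing human RXFP1 (1500 cells/well) in HBSS/20 mM HEPES/0.05% BSA/0.5 mM IBMX. Compounds were tested at 0.010 nM–50 μM final (2% DMSO) for 30 min at room temperature. cAMP was measured by HTRF and values derived by 4-parameter logistic fit.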
row,SMILES,EC50
1,COc1ccc(C2=NOC3COCC23)cc1C(=O)N[C@H]1[C@@H](C(=O)NCc2c(C)noc2C)[C@H]2CC[C@@H]1/C2=C\C1CC1 (some centres unmarked) [compound 673],477 nM
2,"CN(C)c1c(Cl)cc(C2=NOC3COCC23)cc1C(=O)N[C@H]1[C@@H](C(=O)Nc2ccc(F)c(C(F)(F)F)c2)[C@H]2CC[C@@H]1/C2=C\C(F)(F)F (single isomer, unassigned) [compound 556]",41.7 nM
3,"COc1ccc(C2=NOC3CC(CO)CC23)cc1C(=O)N[C@@H]1C2CCC(/C2=C/C2CC2)[C@@H]1C(=O)Nc1ccc(F)c(C(F)(F)F)c1 (single isomer, unassigned) [compound 433]",2 nM
4,COc1ccc(C2CCCN2C(=O)CCO)cc1C(=O)N[C@@H]1C2CCC(C2=CC2CC2)[C@@H]1C(=O)Nc1ccc(F)c(C(F)(F)F)c1 (some centres unmarked) [compound 634],191 nM
5,COc1ccc(N2CCCS2(=O)=O)cc1C(=O)N[C@@H]1C2CCC(/C2=C/C2CC2)[C@@H]1C(=O)Nc1ccc(F)c(C(F)(F)F)c1 (some centres unmarked) [compound 372],12 nM
6,"O=C(N[C@H]1[C@@H](C(=O)Nc2ccc(F)c(C(F)(F)F)c2)[C@H]2CC[C@@H]1/C2=C\C1CC1)c1cccc(C2=NOC3COCC23)c1 (single isomer, unassigned) [compound 719]",2490 nM
7,COc1ccc(C2=NOC3COCC23)cc1C(=O)N[C@H]1[C@@H](C(=O)N[C@@H](C)c2ccccc2C(F)(F)F)[C@H]2CC[C@@H]1/C2=C\C1CC1 (some centres unmarked) [compound 665],373 nM
8,COc1cc(F)c(F)cc1C(=O)N[C@@H]1C2CCC(C2=C(C)C)[C@@H]1C(=O)Nc1cccc(S(=O)(=O)C(F)(F)F)c1 (some centres unmarked) [compound 55],230 nM
9,COc1cc(F)c(F)cc1C(=O)N[C@@H]1C2CCC(/C2=C/c2cccc(CN3CCOCC3)c2)[C@@H]1C(=O)Nc1ccc(F)c(C(F)(F)F)c1 (some centres unmarked) [compound 70],2900 nM
10,O=C(N[C@H]1[C@@H](C(=O)Nc2ccc(F)c(C(F)(F)F)c2)[C@H]2CC[C@@H]1/C2=C\C1CC1)c1cc(C2=NOC3CC(CO)CC23)ccc1OCC(F)F (some centres unmarked) [compound 783],3.4 nM
11,"COc1ccc(-c2ccc(N3CCOCC3)c(C(=O)O)c2)cc1C(=O)N[C@H]1[C@@H](C(=O)Nc2ccc(F)c(C(F)(F)F)c2)[C@H]2CC[C@@H]1/C2=C\C1CC1 [Example 249, 3′-(((1R,2R,3S,4R,Z)-7-(cyclopropylmethylene)-3-((4-fluoro-3-(trifluoromethyl)phenyl)carbamoyl)bicyclo[2.2.1]heptan-2-yl)carbamoyl)-4′-methoxy-4-morpholino-[1,1′-biphenyl]-3-carboxylic acid, TFA]",5 nM
12,COc1ccc(C2=NOC3CC(O)(C(F)(F)F)CC23)cc1C(=O)N[C@H]1[C@@H](C(=O)NCC(C)(C)C)[C@H]2CC[C@@H]1/C2=C\C1CC1 (some centres unmarked) [compound 862],3.4 nM
13,COc1ccc(C2=NOC3COCC23)cc1C(=O)N[C@H]1[C@@H](C(=O)NCc2ccccc2C#N)[C@H]2CC[C@@H]1/C2=C\C1CC1 (some centres unmarked) [compound 613],137 nM
14,COc1ccc(-c2cc(C(NC(=O)COc3ccccc3)C(=O)O)ccc2F)cc1C(=O)N[C@@H]1C2CCC(/C2=C/C(F)(F)F)[C@@H]1C(=O)Nc1ccc(F)c(C(F)(F)F)c1 (some centres unmarked) [compound 244],7 nM
15,COc1ccc(-c2noc(CCO)c2CCO)cc1C(=O)N[C@H]1[C@@H](C(=O)Nc2ccc(F)c(C(F)(F)F)c2)[C@H]2CC[C@@H]1/C2=C\C1CC1 [compound 531],22.7 nM
16,COc1ccc(-c2cc(C(COC(=O)NC3CCC3)C(F)(F)F)ccc2F)cc1C(=O)N[C@H]1[C@@H](C(=O)Nc2ccc(F)c(C(F)(F)F)c2)[C@H]2CC[C@@H]1/C2=C\C1CC1 (some centres unmarked) [compound 879],0.9 nM
17,COc1cc(F)c(F)cc1C(=O)N[C@@H]1C2CCC(/C2=C/c2ccc(C#N)cc2)[C@@H]1C(=O)Nc1ccc(F)c(C(F)(F)F)c1 (some centres unmarked) [compound 62],710 nM
18,COc1ccc(-c2cc(-c3nnn[nH]3)ccc2F)cc1C(=O)N[C@@H]1C2CCC(/C2=C/c2ccccc2)[C@@H]1C(=O)Nc1ccc(F)c(C(F)(F)F)c1 (some centres unmarked) [compound 152],8 nM
19,COc1c(F)cc(C2=NOC3CC(C)(CO)CC23)cc1C(=O)N[C@H]1[C@@H](C(=O)N[C@H](C)C2(C)CC2)[C@H]2CC[C@@H]1/C2=C\C1CC1 (some centres unmarked) [compound 961],1 nM

row,SMILES,EC50
1,COc1ccc(C2=NOC3COCC23)cc1C(=O)N[C@H]1[C@@H](C(=O)N[C@H](CF)C2(C)CC2)[C@H]2CC[C@@H]1/C2=C\C1CC1 (some centres unmarked) [compound 771],3.8 nM
2,COc1ccc(C2=NO[C@H]3CC(CO)C[C@@H]23)cc1C(=O)N[C@H]1[C@@H](C(=O)Nc2ccc(F)c(C(F)(F)F)c2)[C@H]2CC[C@@H]1/C2=C\CC(C)C (some centres unmarked) [compound 822],2.5 nM
3,COc1ccc(C2=NO[C@H]3CC(CO)C[C@@H]23)cc1C(=O)N[C@H]1[C@@H](C(=O)Nc2ccc(F)c(C(F)(F)F)c2)[C@H]2CC[C@@H]1/C2=C\CCF (some centres unmarked) [compound 814],1.2 nM
4,"O=C(O)c1ccc(F)c(-c2ccc(OCCN3CCOCC3)c(C(=O)N[C@H]3[C@@H](C(=O)Nc4ccc(F)c(C(F)(F)F)c4)[C@H]4CC[C@@H]3/C4=C\C(F)(F)F)c2)c1 [Example 320, 6-fluoro-3′-(((1R,2R,3S,4R,Z)-3-((4-fluoro-3-(trifluoromethyl)phenyl)carbamoyl)-7-(2,2,2-trifluoroethylidene)bicyclo[2.2.1]heptan-2-yl)carbamoyl)-4′-(2-morpholinoethoxy)-[1,1′-biphenyl]-3-carboxylic acid]",1950 nM
5,"O=C(N[C@H]1[C@@H](C(=O)Nc2ccc(F)c(C(F)(F)F)c2)[C@H]2CC[C@@H]1/C2=C\C1CC1)c1cccc(C2=NOC3COCC23)c1 (single isomer, unassigned) [compound 647]",241 nM
6,COc1ccc(-c2cc(C(CO)NC(C)=O)ccc2F)cc1C(=O)N[C@@H]1C2CCC(/C2=C/C2CC2)[C@@H]1C(=O)Nc1ccc(F)c(C(F)(F)F)c1 (some centres unmarked) [Example 172],5 nM
7,COc1ccc(-c2ccc(C(CC(=O)O)C(F)(F)F)cc2F)cc1C(=O)N[C@H]1[C@@H](C(=O)Nc2ccc(F)c(C(F)(F)F)c2)[C@H]2CC[C@@H]1/C2=C\C1CCCC1 (some centres unmarked) [compound 891],3.7 nM
8,COc1ccc(-c2cc(C3=NOC4CC(CO)CC34)ccc2F)cc1C(=O)N[C@H]1[C@@H](C(=O)Nc2ccc(F)c(C(F)(F)F)c2)[C@H]2CC[C@@H]1/C2=C\C1CC1 (some centres unmarked) [compound 954],5.3 nM
9,"COc1ccc(C2=NOC(C(=O)O)C2)cc1C(=O)N[C@H]1[C@@H](C(=O)Nc2ccc(F)c(C(F)(F)F)c2)[C@H]2CC[C@@H]1/C2=C\C1CC1 (mixture of isomers) [Example 384, 3-(3-(((1R,2R,3S,4R,Z)-7-(cyclopropylmethylene)-3-((4-fluoro-3-(trifluoromethyl)phenyl)carbamoyl)bicyclo[2.2.1]heptan-2-yl)carbamoyl)-4-methoxyphenyl)-4,5-dihydroisoxazole-5-carboxylic acid]",123 nM
10,COc1cc(F)c(F)cc1C(=O)N[C@@H]1C2CCC(/C2=C/c2cnn(Cc3ccccc3)c2)[C@@H]1C(=O)Nc1ccc(F)c(C(F)(F)F)c1 (some centres unmarked) [compound 61],570 nM
11,COc1ccc(C2=NOC3COCC23)cc1C(=O)N[C@H]1[C@@H](C(=O)NC2CCCC2)[C@H]2CC[C@@H]1/C2=C\C1CC1 (some centres unmarked) [Example 565],50.7 nM
12,COc1ccc(C2=NOC3COCC23)cc1C(=O)N[C@H]1[C@@H](C(=O)NC2Cc3ccccc3C2)[C@H]2CC[C@@H]1/C2=C\C1CC1 (some centres unmarked) [compound 610],132 nM
13,CCCOc1c(F)cc(C2=NOC3CC(CO)CC23)cc1C(=O)N[C@H]1[C@@H](C(=O)Nc2ccc(F)c(C(F)(F)F)c2)[C@H]2CC[C@@H]1/C2=C\C1CC1 (some centres unmarked) [compound 779],1.6 nM
14,COc1cc(F)c(F)cc1C(=O)N[C@@H]1C2CCC(/C2=C/c2cc(C)cc(C)c2)[C@@H]1C(=O)Nc1ccc(F)c(C(F)(F)F)c1 (some centres unmarked) [compound 60],920 nM
15,COc1ccc(C2=NOC3COCC23)cc1C(=O)N[C@H]1[C@@H](C(=O)Nc2cc(OC(F)(F)F)ccc2F)[C@H]2CC[C@@H]1/C2=C\C1CC1 (some centres unmarked) [compound 762],2 nM
16,COc1ccc(C2=NOC3CC(CO)CC23)cc1C(=O)N[C@H]1[C@@H](C(=O)Nc2ccc(F)c(C(F)(F)F)c2)[C@H]2CC[C@@H]1C2CC1CCC1 (some centres unmarked) [compound 523],21.3 nM
17,COc1ccc(C2=NOC3CC(CO)CC23)cc1C(=O)N[C@H]1[C@@H](C(=O)Nc2ccc(F)c(C(F)(F)F)c2)[C@H]2CC[C@@H]1/C2=C\C1CCC1 (some centres unmarked) [compound 446],0.6 nM
18,COc1ccc(C2=NOC(C(=O)O)C2)cc1C(=O)N[C@@H]1C2CCC(/C2=C/C2CCC2)[C@@H]1C(=O)Nc1ccc(F)c(C(F)(F)F)c1 (some centres unmarked) [compound 387],11 nM

# Same assay, conditions: cAMP hRXFP1 HEK293 Assay EC50, HEK293 cells stably expressing human RXFP1, 30 min at room temperature
row,SMILES,EC50
1,COc1cc(F)c(F)cc1C(=O)N[C@@H]1[C@H](C(=O)Nc2ccc(F)c(C(F)(F)F)c2)[C@@H]2CC[C@H]1C2C(C)C (some centres unmarked) [compound 975],1000 nM
